{"source": "patent US20050202508A1", "about": "“Biomarker for Parkinson's disease” (priority 2003, published 2005)", "molecules": {"B1": {"name": "hrPIF: human recombinant full length dermicidin, His-tagged, expressed in M15 bacterial cells (protein)", "chain": "YDPEAASAPGSGNPCHEASAAQKENAGEDPGLARQAPKPRKQRSSLLEKGLDGAKKAVGGLGKLGKDAVEDLESVGKGAVHDVKDVLDSVL", "modifications": "left off: small tags and cut ends", "notes": "human recombinant full length dermicidin, His-tagged, expressed in M15 bacterial cells"}}, "key": {"[1]": {"system": "SY5Y neuroblastoma catecholaminergic cells", "test": "MPP+ toxicity in SY5Y cells, MTT assay", "assay_type": "cell-based", "conditions": "24 hr after exposure to MPP+; dose dependent; FIG. 9", "method": "The PD biomarker DCD-1 promotes neurotoxicity in SY5Y cells in a dose dependent manner. In this study cell toxicity in SY5Y cells was assessed 24 hr after exposure to MPP+ using methylthiazoletetrazolium [3 (4,5-dimethylthiazol-2-yl)-2,5-diphenyltetrazolium bromide] (MTT) calorimetric assay, (an index or altered energy metabolism). Values represent Means+SEM of determinations from 2 separate cultures, n=3 cultures chambers per group * P<0.05 between MPP+ and MPP+ and DCD-1 treatment (see FIG. 9)."}, "[2]": {"target": "PIF cell surface receptor (DCD receptor) (human)", "test": "Scatchard analysis of AP-PIF binding to human SH-SY5Y neuronal cells"}, "PD patients": {"system": "PD patients", "conditions": "cited from earlier work"}, "PIF mRNA": {"system": "PIF mRNA", "test": "PIF mRNA expression after MPP+ treatment, northern blot", "assay_type": "cell-based", "conditions": "MPP+ treatment 12 hr, enriched rat DAergic neuron cultures, FIG. 12A", "description": "(§1) The exact molecular mechanisms leading to the pathophysiology of PD are not well understood. MPP^+, a mitochondrial complex I inhibitor, produces PD-type symptoms in humans and laboratory animals and has been used to investigate PD pathogenesis^12,13. MPP^+, the ultimate metabolite of MPTP, is taken up into DAergic neurons where it accumulates in mitochondria and works to inhibit complex I activity. Although the mechanism of MPP^+-induced neurotoxicity is not fully understood, there is increasing evidence supporting the involvement of reactive oxygen species (ROS)^14. […]\n(§2) For these studies enriched mesecephalic DAergic cultures were obtained from E16 Sprague Dawley embryos and cultured for 10 days in poly 1-ornithine coated culture dish at a density of 0.5×10^6 cells per well and maintained in Neurobasal medium with B-27 supplement and 0.5 mM glutamine, as previously described^16. In A, following MPP^+ treatment for 12 hr, total RNA was extracted from the neuronal cultures using Ultraspec RNA (Biotecx) and PIF mRNA expression assessed by northern blot hybridization assay using ^32p labeled hPIF cDNA^17 and quantified by phospho-imaging (Molecular Dynamics). […] Non-specific transport was determined in parallel assays conducted in the presence of 1 uM GBR12909 and incorporated [^3H]-dopamine was extracted with NaOH (0.5M) and quantified by liquid scintillation spectrometry"}, "substantia nigra": {"system": "substantia nigra", "test": "In vivo MRM T2-weighted imaging of substantia nigra after MPTP lesion", "set-up": "species or system mouse", "description": "The goal of this study was to develop a non-invasive methodology for functionally assessing the predicative role of novel protein biomarkers in CSF (and serum) for experimental MPTP SN neurodegeneration in pre-clinical models of PD (Aim 4) using MRM imaging technology in collaboration with Dr. Cheuk Tang (Collaborator, Imaging Sciences Laboratory, Dept. Neuroradiology) and Dr. Patrick Hof (Collaborator, Advance Imaging Program, Center for Neurobiology), of Mount Sinai Medical School. The studies are based on the principle that increased iron content found in SN of PD and MPTP models of PD^29-31 may be an index of SN neurodegeneration, which can be monitored by MRM^32,33, longitudinally. Given that MRM measurement is highly sensitive to iron content in SN dopaminergic cells, we hypothesized that MRM may offer a means for non-invasive evaluation of SN neurodegeneration. In exciting ongoing studies, using a 9.4 Tesla micro MRM imager (Bruker Instrument) we collected matched consecutive rostro-caudal T2-weighted in vivo MRM images of the whole brain from the same mouse, prior to and four-days after SN MPTP lesion. […] As predicted, this observation of hypo-intense MRM measurements in the SN post-lesioning is consistent with an elevation in iron content in the degenerating nigrostriatal DAergic neurons. […]"}, "[3]": {"system": "substantia nigra DAergic neurons", "assay_type": "in vivo, mouse", "experimental": "In this study SN DAergic lesions in male C57B6/SJ mice were obtained by i.p. MPTP injection (four consecutive injections at 2 hr intervals; 20 mg/kg/body weight (BW) per injection 27); saline injected mice were used as a control (n=4 per group). Four days following MPTP (or saline) injection, mice were anesthetized using a combination of ketamine (50 mg/kg BW) and xylazine (5 mg/kg BW), CSF was then collected from cisterna magna, as previously described^28. Immediately after CSF collection (4 days post-lesioning), mice were sacrificed by cervical dislocation and the brain was collected, preserved under cryoprotection and stored at −80° C. 1 μl of CSF from each animal was analyzed by SELDI technology as described in FIG. 1. […] In panel 3B, number of thyroxine hydroxylase (TH)-immunoreactive DAergic neurons in the SN counted stereologically, with data are expressed as mean+SEM for MPTP and saline groups. In panels A and B, n=4 per group; *P<0.05."}, "[4]": {"system": "rat mesencephalic DAergic neuron cultures", "test": "MPP+-mediated neurotoxicity in enriched rat mesencephalic DAergic neuron cultures, [3H]-dopamine uptake assay", "assay_type": "cell-based", "description": "as §1, §2"}, "α-synuclein": {"system": "α-synuclein", "test": "alpha-synuclein immunoblot in enriched DAergic neuron cultures after hrPIF treatment", "assay_type": "cell-based, rat", "description": "Because of the recent evidence showing increased α-synuclein expression increases vulnerability to MPP/MPTP^19, we decided to explore the possibility that PIF might have promoted DAergic neurodgeneration through mechanisms that involve α-synuclein expression. […] This evidence is also consistent with work in Drosophila where overexpression of α-synuclein leads to DAergic toxicity^22. In these studies (see FIG. 13) 10 days old enriched […] cultures were obtained as discussed in FIG. 12. In A, following treatment with increasing concentrations of hrPIF, cultures lysed in each well using SDS-PAGE (5 mM Tris-HCl, 2% SDS, 0.1 M DTT, 0.001% Bromphenol blue, 10% glycerol, pH6.8) sample buffer. […] After 5 min incubation at RT in buffer, the Triton X-100 soluble fraction was gently collected from the-dish-. -The remaining Triton-insoluble material was gently rinsed once with ice cold PBS, and collected in buffer N (0.1 M Na2CO3, pH 11.5 with protease inhibitor cocktails). In C, the Triton-insoluble synuclein fraction was collected in the pellet by centrifugation at 16,000 g for 10 min and dissolved in 1×SDS buffer. Immunoblots used monoclonal anti α-synuclein antibody (1:1000, BD Bioscience) and immunoreactivities were visualized densitometrically."}}, "data": [{"molecule": "DCD-1: human recombinant DCD-1, aa 63-109 of dermcidin precursor, 4.7 kDa (SEQ ID NO:1) (SSLLEKGLDGAKKAVGGLGKLGKDAVEDLESVGKGAVHDVKDVLDSV; homo sapiens)", "values": [{"measurement": "effect on MPP+ mediated death (MTT)", "setting": "[1]", "value": "potentiates MPP+ mediated death"}]}, {"molecule": "N-terminal alkaline phosphatase (AP) C-terminal PIF (DCD) precursor protein fusion protein (from UniProt P81605 20-110) (ligand)", "values": [{"measurement": "Kd", "setting": "[2]", "value": 51, "unit": "nM"}, {"measurement": "maximum binding concentration (receptors per cell) (PIF receptors per cell)", "setting": "[2]", "value": 30000}]}, {"molecule": "N[C@@H](Cc1ccc(O)c(O)c1)C(=O)O", "note": "[L-dopa]", "values": [{"measurement": "extension of lifespan of PD patients, on average", "setting": "PD patients", "value": "one"}]}, {"molecule": "C[n+]1ccc(-c2ccccc2)cc1", "note": "[MPP^+, 1-Methyl-4-phenylpyridinium ion]", "values": [{"measurement": "PIF mRNA expression", "setting": "PIF mRNA", "value": "dose dependently induced"}]}, {"molecule": "CN1CC=C(c2ccccc2)CC1", "note": "[MPTP]", "values": [{"measurement": "decrease in SN T2 density / T2-weighted values vs pre-lesion", "setting": "substantia nigra; after MPTP lesion, n=2, 9.4 Tesla MRM", "value": "approximately 25%"}, {"measurement": "average normalized SN T2 density (SN T2 density/temporal T2 density)", "setting": "substantia nigra; post-MPTP lesioning, N=2 animals", "value": "0.6904 ± 0.05"}, {"measurement": "loss of tyrosine hydroxylase (TH) immunopositive neurons", "setting": "[3]; MPTP i.p. 4 x 20 mg/kg, 4 days post-lesioning, stereological count", "value": "approximately 25%"}, {"measurement": "4.6 kDa anionic DCD-like protein in CSF", "setting": "[3]; mouse, in vivo", "value": "induced"}]}, {"molecule": "B1", "values": [{"measurement": "potentiation of MPP+-mediated neurotoxicity, dopamine uptake assay", "setting": "[4]; exogenous hrPIF with MPP+, 12 hours, FIG. 12B", "value": "~1.5", "unit": "fold"}, {"measurement": "potentiation of MPP+-induced neurotoxicity", "setting": "[4]; exogenous hrPIF, rat mesencephalic DAergic neuron cultures, summary statement", "value": "~2", "unit": "fold"}, {"measurement": "soluble oligomeric α-synuclein protofibrils", "setting": "α-synuclein; Triton X-100 soluble fraction, FIG. 13B", "value": "accumulation"}, {"measurement": "aggregated α-synuclein", "setting": "α-synuclein; Triton-insoluble fraction, FIG. 13C", "value": "not aggregated α-synuclein"}, {"measurement": "expression of total α-synuclein", "setting": "α-synuclein; hrPIF treatment, FIG. 13A", "value": "increased expression"}]}]}
